Source: paper PMC5329131 (Biochimica et biophysica acta, 2017)
Where no end group is shown, it is not given here.

Columns and labels:
[1] = test system: rabbit skeletal heavy SR vesicles (RyR1); test: Ca2+ release from heavy SR vesicles; assay type: biochemical; details: for Ca2+ release by vesicles (quality control): response to caffeine, 4-cmc and A23187; for Ca2+ release by RyR agonists vs A23187: same vesicles, data not shown
[2] = target: RyR1 (Oryctolagus cuniculus) (UniProt P11716); test: [3H]ryanodine binding; details: cited from earlier work
Chain of UniProt P11716 (P11716 whole entry): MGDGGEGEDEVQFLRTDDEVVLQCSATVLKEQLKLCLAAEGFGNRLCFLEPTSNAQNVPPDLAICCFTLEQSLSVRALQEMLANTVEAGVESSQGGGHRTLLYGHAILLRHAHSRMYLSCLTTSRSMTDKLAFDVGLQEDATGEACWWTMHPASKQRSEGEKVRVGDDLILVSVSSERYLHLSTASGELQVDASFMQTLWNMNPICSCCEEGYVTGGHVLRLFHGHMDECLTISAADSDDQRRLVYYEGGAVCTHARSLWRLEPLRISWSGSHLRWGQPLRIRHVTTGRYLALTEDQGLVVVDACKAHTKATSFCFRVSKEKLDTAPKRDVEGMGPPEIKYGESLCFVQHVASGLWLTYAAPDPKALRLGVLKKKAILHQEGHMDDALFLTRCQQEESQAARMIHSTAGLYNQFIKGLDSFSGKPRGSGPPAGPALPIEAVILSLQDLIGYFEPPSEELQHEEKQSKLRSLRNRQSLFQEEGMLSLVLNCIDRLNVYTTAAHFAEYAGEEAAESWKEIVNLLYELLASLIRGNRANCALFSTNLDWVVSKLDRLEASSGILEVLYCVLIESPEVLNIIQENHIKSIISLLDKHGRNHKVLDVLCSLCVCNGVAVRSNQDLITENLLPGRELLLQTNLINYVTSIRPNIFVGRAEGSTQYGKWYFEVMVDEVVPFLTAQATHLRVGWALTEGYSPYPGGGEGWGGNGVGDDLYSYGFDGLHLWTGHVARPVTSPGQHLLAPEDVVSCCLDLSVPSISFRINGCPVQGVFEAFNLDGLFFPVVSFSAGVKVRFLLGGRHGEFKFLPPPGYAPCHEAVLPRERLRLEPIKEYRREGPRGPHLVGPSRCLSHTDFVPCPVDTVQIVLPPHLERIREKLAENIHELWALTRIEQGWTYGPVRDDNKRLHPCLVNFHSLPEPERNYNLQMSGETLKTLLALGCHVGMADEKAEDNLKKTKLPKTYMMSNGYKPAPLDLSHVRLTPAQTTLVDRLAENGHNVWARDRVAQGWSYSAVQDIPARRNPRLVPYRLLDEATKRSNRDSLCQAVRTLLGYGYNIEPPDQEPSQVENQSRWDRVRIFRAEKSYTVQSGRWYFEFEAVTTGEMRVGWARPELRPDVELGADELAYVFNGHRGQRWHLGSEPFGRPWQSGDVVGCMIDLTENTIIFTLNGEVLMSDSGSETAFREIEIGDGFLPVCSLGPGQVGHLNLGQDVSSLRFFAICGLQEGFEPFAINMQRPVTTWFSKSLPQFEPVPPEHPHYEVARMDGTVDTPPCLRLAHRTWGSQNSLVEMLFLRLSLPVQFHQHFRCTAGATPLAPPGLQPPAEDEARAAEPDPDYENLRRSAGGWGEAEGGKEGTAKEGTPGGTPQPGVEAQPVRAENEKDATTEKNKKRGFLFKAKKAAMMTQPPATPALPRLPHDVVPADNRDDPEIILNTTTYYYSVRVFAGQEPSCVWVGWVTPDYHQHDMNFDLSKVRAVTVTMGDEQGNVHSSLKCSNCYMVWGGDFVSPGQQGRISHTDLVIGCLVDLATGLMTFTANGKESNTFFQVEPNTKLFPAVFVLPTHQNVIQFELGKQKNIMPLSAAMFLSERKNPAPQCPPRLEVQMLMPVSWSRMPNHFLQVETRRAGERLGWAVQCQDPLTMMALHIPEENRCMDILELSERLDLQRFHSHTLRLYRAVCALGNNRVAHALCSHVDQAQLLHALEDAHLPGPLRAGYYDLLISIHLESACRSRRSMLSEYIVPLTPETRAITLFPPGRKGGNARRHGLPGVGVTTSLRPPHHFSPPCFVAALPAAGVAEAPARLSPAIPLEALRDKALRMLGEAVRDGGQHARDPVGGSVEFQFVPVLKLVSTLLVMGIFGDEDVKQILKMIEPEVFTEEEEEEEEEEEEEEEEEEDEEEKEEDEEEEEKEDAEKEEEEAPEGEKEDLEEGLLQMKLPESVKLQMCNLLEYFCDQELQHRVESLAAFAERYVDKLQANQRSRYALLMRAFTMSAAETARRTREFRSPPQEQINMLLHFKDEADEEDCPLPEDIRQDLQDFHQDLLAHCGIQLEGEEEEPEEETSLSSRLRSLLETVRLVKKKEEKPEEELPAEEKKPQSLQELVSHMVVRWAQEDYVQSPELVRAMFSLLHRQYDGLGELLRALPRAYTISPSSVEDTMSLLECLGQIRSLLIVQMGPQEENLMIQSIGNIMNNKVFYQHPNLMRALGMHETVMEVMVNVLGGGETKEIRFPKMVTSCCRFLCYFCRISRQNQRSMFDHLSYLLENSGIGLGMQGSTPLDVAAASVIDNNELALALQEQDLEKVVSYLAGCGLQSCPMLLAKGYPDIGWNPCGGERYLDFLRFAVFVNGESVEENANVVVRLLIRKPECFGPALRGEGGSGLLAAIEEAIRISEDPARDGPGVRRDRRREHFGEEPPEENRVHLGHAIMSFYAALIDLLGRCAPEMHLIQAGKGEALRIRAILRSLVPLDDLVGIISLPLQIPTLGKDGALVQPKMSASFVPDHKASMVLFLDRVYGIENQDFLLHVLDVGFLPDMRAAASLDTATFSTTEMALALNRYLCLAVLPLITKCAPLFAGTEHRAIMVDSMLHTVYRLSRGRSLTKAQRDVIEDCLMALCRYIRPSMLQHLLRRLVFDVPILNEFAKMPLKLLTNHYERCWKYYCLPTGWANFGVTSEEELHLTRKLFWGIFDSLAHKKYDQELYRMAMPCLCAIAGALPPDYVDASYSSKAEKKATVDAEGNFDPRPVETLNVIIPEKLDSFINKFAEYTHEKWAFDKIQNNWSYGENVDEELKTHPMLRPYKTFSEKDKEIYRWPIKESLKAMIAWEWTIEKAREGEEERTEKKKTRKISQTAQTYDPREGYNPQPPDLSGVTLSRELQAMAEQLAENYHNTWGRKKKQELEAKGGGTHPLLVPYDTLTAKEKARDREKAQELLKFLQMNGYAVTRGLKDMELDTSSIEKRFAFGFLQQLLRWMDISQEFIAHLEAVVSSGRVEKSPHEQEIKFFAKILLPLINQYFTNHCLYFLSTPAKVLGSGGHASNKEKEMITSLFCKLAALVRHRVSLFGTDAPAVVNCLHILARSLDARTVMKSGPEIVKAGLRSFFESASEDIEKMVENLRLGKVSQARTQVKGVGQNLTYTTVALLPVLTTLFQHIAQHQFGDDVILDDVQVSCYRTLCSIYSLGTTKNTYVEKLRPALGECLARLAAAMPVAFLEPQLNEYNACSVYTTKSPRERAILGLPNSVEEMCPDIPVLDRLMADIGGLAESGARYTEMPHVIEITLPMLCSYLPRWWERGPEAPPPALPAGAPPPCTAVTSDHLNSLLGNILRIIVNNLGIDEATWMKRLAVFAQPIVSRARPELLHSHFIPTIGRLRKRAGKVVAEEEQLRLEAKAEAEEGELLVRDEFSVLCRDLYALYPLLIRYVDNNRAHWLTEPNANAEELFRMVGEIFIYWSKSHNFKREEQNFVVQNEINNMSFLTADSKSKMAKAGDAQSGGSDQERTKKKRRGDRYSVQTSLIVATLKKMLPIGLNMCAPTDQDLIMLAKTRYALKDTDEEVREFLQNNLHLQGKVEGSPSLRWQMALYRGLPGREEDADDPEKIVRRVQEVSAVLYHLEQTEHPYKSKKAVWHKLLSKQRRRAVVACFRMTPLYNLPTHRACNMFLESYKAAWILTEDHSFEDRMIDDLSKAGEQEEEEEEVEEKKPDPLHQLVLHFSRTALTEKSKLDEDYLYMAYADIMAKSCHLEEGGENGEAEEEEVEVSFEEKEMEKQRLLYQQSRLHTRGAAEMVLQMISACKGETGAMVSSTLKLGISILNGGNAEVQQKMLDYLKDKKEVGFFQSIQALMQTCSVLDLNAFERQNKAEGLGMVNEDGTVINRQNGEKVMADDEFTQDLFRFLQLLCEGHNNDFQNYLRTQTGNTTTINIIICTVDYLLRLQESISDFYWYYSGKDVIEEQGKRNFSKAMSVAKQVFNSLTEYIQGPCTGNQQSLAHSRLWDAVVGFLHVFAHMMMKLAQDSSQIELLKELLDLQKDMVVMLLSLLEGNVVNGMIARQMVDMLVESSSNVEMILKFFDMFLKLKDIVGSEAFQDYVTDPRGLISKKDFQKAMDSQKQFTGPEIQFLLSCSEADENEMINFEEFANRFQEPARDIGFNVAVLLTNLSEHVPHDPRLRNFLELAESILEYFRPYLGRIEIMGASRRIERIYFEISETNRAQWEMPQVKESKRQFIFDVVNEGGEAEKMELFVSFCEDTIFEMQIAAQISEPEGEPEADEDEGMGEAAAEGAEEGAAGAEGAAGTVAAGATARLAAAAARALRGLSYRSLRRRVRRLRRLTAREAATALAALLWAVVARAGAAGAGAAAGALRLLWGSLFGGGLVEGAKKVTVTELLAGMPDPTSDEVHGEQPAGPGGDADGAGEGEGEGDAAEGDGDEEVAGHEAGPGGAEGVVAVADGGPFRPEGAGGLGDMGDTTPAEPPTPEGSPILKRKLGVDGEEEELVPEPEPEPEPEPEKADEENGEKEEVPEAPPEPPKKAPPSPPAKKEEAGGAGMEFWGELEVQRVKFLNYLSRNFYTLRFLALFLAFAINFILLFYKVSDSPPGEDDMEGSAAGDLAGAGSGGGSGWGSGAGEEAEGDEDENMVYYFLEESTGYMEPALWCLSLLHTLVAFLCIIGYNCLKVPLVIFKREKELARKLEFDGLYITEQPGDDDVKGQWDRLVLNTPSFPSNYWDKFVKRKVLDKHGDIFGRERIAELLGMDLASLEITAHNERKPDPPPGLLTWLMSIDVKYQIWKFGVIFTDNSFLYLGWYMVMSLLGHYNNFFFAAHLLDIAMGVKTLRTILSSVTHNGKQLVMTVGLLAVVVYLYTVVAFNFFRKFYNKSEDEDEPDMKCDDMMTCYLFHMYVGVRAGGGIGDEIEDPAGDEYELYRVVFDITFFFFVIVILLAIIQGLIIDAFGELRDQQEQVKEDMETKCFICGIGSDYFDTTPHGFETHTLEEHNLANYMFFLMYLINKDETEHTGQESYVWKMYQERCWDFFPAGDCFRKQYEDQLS

[3] = test system: RyRs; details: cited from earlier work
[4] = test system: RyR1; details: alanine scanning of Imperacalcin; ref Lee et al., 2004; cited from earlier work
[5] = test system: SR Ca2+ release (RyR1); details: ref Xiao et al., 2016; cited from earlier work

Molecule: CNc1ccc2oc(C[C@H]3O[C@@]4(CC[C@H]3C)O[C@H]([C@H](C)C(=O)c3ccc[nH]3)[C@H](C)C[C@H]4C)nc2c1C(=O)O [A23187]
- Ca2+ release by vesicles (quality control) [1]: equivalent amount of Ca^2+

Molecule: Maurocalcin (from UniProt P60254)
- Kd [2]: 26.4 nM

Molecule: Cn1c(=O)c2c(ncn2C)n(C)c1=O [Caffeine, caffeine]
- Ca2+ release by vesicles (quality control) [1]: equivalent amount of Ca^2+
- Ca2+ release by RyR agonists vs A23187 [1]: release roughly equivalent levels of Ca^2+ in these vesicles as that emptied by A23187

Molecule: Imperacalcin (from UniProt P59868)
- Kd [2]: 8.7 nM

Molecule: Vejocalcin (from UniProt P0DPT1)
- Kd [2]: 3.7 nM

Molecule: Urocalcin (from UniProt L0GBR1)
- Kd [2]: 376 nM

Molecule: Hemicalcin (from UniProt A0A1L4BJ42)
- Kd [2]: 6.9 nM

Molecule: Imperacalcin: 33-amino acid calcin from Pandinus imperator, UniProt P59868 (GDCLPHLKRCKADNDCCGKKCKRRGTNAEKRCR; ends and bridges not checked; cysteine pairing not given here; UniProt P59868 1-33, looked up)
- binding site by single RyR1 channel analysis ([3]; ref Tripathy et al., 1998): enters the channel vestibule and binds to a single site located within the ion conduction pathway and close to the voltage drop of the channel
- effect on RyR gating ([3]; ref not given): increases their activity by inducing the appearance of a long-lived subconductance state

Molecule: Opicalcin2 (from UniProt P60253)
- Kd [2]: 3.2 nM

Molecule: Cc1cc(O)ccc1Cl [4-cmc]
- Ca2+ release by vesicles (quality control) [1]: equivalent amount of Ca^2+
- Ca2+ release by RyR agonists vs A23187 [1]: release roughly equivalent levels of Ca^2+ in these vesicles as that emptied by A23187

Molecule: Hadrucalcin (from UniProt B8QG00)
- Kd [2]: 14.8 nM

Molecule: N14A: alanine-scanning mutant N14A of Imperacalcin (GDCLPHLKRCKADADCCGKKCKRRGTNAEKRCR; ends and bridges not checked; cysteine pairing not given here; UniProt P59868 1-33, looked up, variant N14A)
- influence of mutation on binding affinity [4]: almost no influence on binding affinity

Molecule: Opicalcin2: calcin from Opistophthalmus carinatus, UniProt P60253 (GDCLPHLKRCKENNDCCSKKCKRRGANPEKRCR; ends and bridges not checked; cysteine pairing not given here; UniProt P60253 34-66, looked up)
- binding affinity vs ability to stimulate Ca2+ release [5]: strong binding affinity but weaker ability to stimulate Ca^2+ release

Molecule: Opicalcin1 (from UniProt P60252)
- Kd [2]: 0.3 nM
